These results are taken from patent US5668146A, “Symmetrical bis-heteroarylmethoxyphenyliminoxyalkyl carboxylates as inhibitors of leukotriene biosynthesis” (Abbott Laboratories, priority 1996, dated 1997).

In general, IC50 refers to the midpoint of a concentration-inhibition curve. Usually ED50 stands for the dose that gives a 50% effect, or the effect in half of the subjects. Higher therefore signals weaker potency.

SMILES strings stand for the structures.

Assay [1] has as its system leukotriene biosynthesis. To be noted: oral; Prasit, et al., 1991; cited from earlier work.
The subject of assay [2] is 5-Lipoxygenase From Stimulated LTB4 Formation in Human Polymorphonuclear Leukocytes. Briefly: Inhibition of calcium ionophore-induced LTB4 formation in human polymorphonuclear leukocytes (PMNL). It is filed as cell-based. The note with it: calcium ionophore 8.3 μM, 10 min at 37° C., 15 min preincubation. The method, then: Inhibition of leukotriene biosynthesis was evaluated in an assay involving calcium ionophore-induced LTB4 expressed in human polymorphonuclear leukocytes (PMNL). Human PMNL isolated from heparinized (20 USP units/mL) venous blood (25 mL) obtained from healthy volunteers was layered over an equal volume of Ficoll-Hypaque Mono-Poly Resolving Medium (ICN Flow, Costa Mesa, Calif.) and centrifugated at 400×g for 40 minutes at 20° C. The PMNL was collected, erythrocytes lysed and washed 2× and suspended at 1.0×10^7 cells/mL in Earle's balanced salt solution with 17 mM Earle's HEPES. Aliquots of the cell suspension were preincubated with test compounds dissolved in DMSO (final concentration <2%) for 15 minutes and stimulated with calcium ionophore (final concentration 8.3 μM) for 10 minutes at 37° C. Incubations were stopped with the addition of two volumes of ice cold methanol followed by centrifuging the cell suspensions at 4° C. for 10 minutes at 450×g. The amount of LTB4 in the methanol extract was analyzed by enzyme-linked immunoassay or by HPLC analysis.

Assay [3] relates to leukotriene biosynthesis. Briefly: Ionophore A-23187-Induced Rat Pleural Inflammation Model (in vivo leukotriene inhibition). The note with it: male rats, dosed one hour prior to intrapleural A23187 (20 μg), lavage after 30 min, eicosanoids by enzyme immunoassay. The procedure: Inhibition of leukotriene biosynthesis in vivo was evaluated using the Ionophore A-23187-Induced Rat Plueral Inflammation Model. Pleural inflammation was induced in male rats following the method of Rao, et al. (Rao, T. S., Currie, J. L., Shaffer, A. F., Isakson, P. C., Evaluation of 5-lipoxygenase Inhibitors, Zileuton, A78773 and ICI D-2 138 in an Ionophore (A-23187) Induced Pleural Inflammation Model in the Rat, Life Sciences, 53, 147 (1993)). Rats were dosed with experimental compounds in 0.2% methocel one hour prior to the intrapleural injection of the calcium ionophore, A23187. The rats where lightly anaesthetized with Pentrane (Abbott Laboratories) and injected intrapleurally with 0.5 ml of 2% ethanol in injectable saline (Abbott Laboratories) containing 20 μg of A23187 (Cal BioChem-Novabiochem). Thirty minutes later the animals were euthanised and the pleural cavities lavaged with ice cold saline (Abbott Laboratories). The lavage fluid was then added to ice cold methanol (final methanol concentration 30%) to lyse cells and precipitate protein. Eicosanoids were determined by enzyme immunoassay by standard methods.

As for `O=C(O)CSC(CCCc1ccc(Cl)cc1)c1ccc(OCc2ccc3ccccc3n2)cc1` (centres unmarked) [((4-(4-chlorophenyl)-1-(4-(2-quinolylmethoxy)phenyl)butyl)thio)acetic acid], the “orally active leukotriene biosynthesis inhibitor (in words)” value in the assay with leukotriene biosynthesis [1] is on record as “orally active leukotriene biosynthesis inhibitor”.
As to `CC(=NOC(c1ccc(OCc2ccc3ccccc3n2)cc1)c1ccc(OCc2ccc3ccccc3n2)cc1)C(=O)O` [Example 2, 2-(bis(4-(2-quinolylmethoxy)phenyl)methyliminoxy)propionic acid], in assay [2], the concentration for half-maximal inhibition (IC50) came out at 160 nM. Further, the 50% effect level in the assay with leukotriene biosynthesis [3] (ED50) was put at a dose of 2 mg/kg.
On to `CC(CCC(=O)O)=NOC(c1ccc(OCc2ccc3ccccc3n2)cc1)c1ccc(OCc2ccc3ccccc3n2)cc1` [Example 7, 4-(bis(4-(2-quinolylmethoxy)phenyl)methyliminoxy)pentanoic acid], for which the IC50 in assay [2] is 50 nM. This compound also registered an ED50 in the assay on leukotriene biosynthesis [3] of 1 mg/kg.
`CC(/C=C/C(=O)O)=NOC(c1ccc(OCc2ccc3ccccc3n2)cc1)c1ccc(OCc2ccc3ccccc3n2)cc1` [Example 8]: in assay [2], the IC50 worked out at 30 nM.
Still for that read-out and setting: under `O=C(O)C=NOC(c1ccc(OCc2ccc3ccccc3n2)cc1)c1ccc(OCc2ccc3ccccc3n2)cc1` [Example 1, bis(4-(2-quinolylmethoxy)phenyl)methyliminoxyacetic acid] stands 68 nM.
On the same count and under the same terms, for `CC(=NOC(c1ccc(OCc2ccc3cc(F)ccc3n2)cc1)c1ccc(OCc2ccc3cc(F)ccc3n2)cc1)C(=O)O` [Example 6, 2-(bis(4-(6-fluoro-2-quinolylmethoxy)phenyl)methyliminoxy)propionic acid] the value was 40 nM.
